Numbered stars: 1 amine (or outer) side, 2 acyl side, 3 side chain; on linkers, the order of the positions; unused ones are H or OH. Square brackets hold non-standard residues; d marks the D form. Suc = O=C(CCC(=O)[*:2])[*:1]; NMeV = CN[C@H](C(=O)O)C(C)C; βAla = NCCC(=O)O

Holding throughout (type): in vivo
In assay [1] the test system is Tilapia fish. In words: Experiment #3: tilapia fed AN6-coated feed, treatment schedules 1 to 8 (survival, weight, length, size distribution, FCR). The settings on record: 10 mg AN6/Kg feed from 10 dph for 90 days; D279; compared to control.
Assay [2] relates to Tilapia fish. In words: Feed conversion rate (FCR) calculated over experiments #1, #2, #3. The method, then:
(§1) In order to determine the efficiency of feed conversion into fish substance in experiments (#1, #2, #3), FCR values which reflect the amount of feed needed to grow a kilogram fish, were calculated for each period and for the entire fish growth period. In order to determine the amount of consumed feed, the amount of feed provided was measured daily for each tank and the leftovers were collected, weighted and subtracted from the total amount of feed. Dead fish were removed every day before each feeding and then counted and weighed for accurate calculation of feed intake and FCR. It is to be noted that high mortality can still influence FCR values since feed eaten by fish that have later died cannot be subtracted from the total feed consumed and on the other hand periodic total fish weight gained is underestimated (dead fish are not included). Three FCR values were calculated according to the following formulas:
Specifically, improved FCR is observed 30 to 90 days after treatment initiation and can last at least 100 days after treatment stopped.

The test system of assay [3] is TK receptors (tac1, tac2, tac3). In words: TK receptor mRNA expression following AN6 treatment. The conditions noted are these: different parts of the gut and skin.
In assay [4] the test system is Tilapia fish. In words: Experiment #1: tilapia fed AN6-coated feed in two phases (growth, biomass, mortality, FCR). The settings on record: second phase, adult fish 195-263 dph; 50 days of 30 mg AN6/Kg feed; compared to control.
Assay [5] relates to Tilapia fish. In words: Experiment #2: tilapia fed AN6-coated feed 60-150 dph (growth, biomass, FCR, intestine weight). The method, then:
MeM (powder, manufactured by Bern Aqua), Nanolis P1, P2 (pellet sizes of 0.8-1 mm, 1-1.5 mm, respectively, manufactured by Ocialis) and Tilaphi 1, 2 & 3 (pellet sizes of 1-1.5 mm, 2 mm, 3-5.5 mm, respectively, manufactured by Ocialis) were used as basic regular feed. The basic feed was coated according to the following general procedure: 9 ml or 3 ml of Tris-HCl solution (50 mM, pH=8.8) were diluted to 60 ml with distilled H2O. For AN6-containing feed preparation, desired amounts of AN6 peptide (a TK antagonist having the sequence Succ-Asp-Ser-D-Trp—N(Me)Val-βAla-Leu-Met-NH2, SEQ ID NO. 6) were dissolved in the Tris-HCl solution. Then, each of the various solutions was mixed with 3 Kg of basic feed pellets using an electric mixer. The peptide-feed mixtures where then dried either in oven at 40° C. for 24 hours or in drying drum for few hours to form coated pellets. The total amount of each feed was 3 Kg.
Tilapia fish (n=1440) have been raised from day 60 to day 119 post-hatch in indoor tanks and then transferred to outdoor tanks (120-150 dph) followed by cages in ponds (150-243 dph). The fish were fed to apparent satiation 2-4 times a day, for 90 days (60-150 dph) either with regular feed (Feed A, Group C, n=60 in 8 repeats); feed coated with AN6 peptide solution in ratio of 5 mg AN6/Kg feed (5 ppm, Feed B, Group D, n=60 in 8 repeats); or feed coated with AN6 peptide solution in ratio of 10 mg AN6/Kg feed (Feed C, Group E, n=60 in 8 repeats).
During the experimental period, the average fish weight was measured, and the daily growth rate was calculated by dividing the average weight gained in each measuring period by the number of days since the last measurement. […] However, from age 200 dph, a considerable jump in fish performance and FCR was observed, reaching a maximal level at the last measurement point (243 dph, +8.4% average weight, +18% weight gain, +10% total biomass; FIG. 1, experiment #2 and FIG. 3B). The effect on growth was evident even when considering differences in initial body weight (FIG. 2B).
as §1
At the end of the experiment described in example 3 (experiment #2), 6 fish from each cage/tank (3 females and 3 males, n=24 per treatment group) were sacrificed and whole intestine was removed and weighted.

Setting [6] is: 10 mg/Kg feed, Group E, last measurement point 243 dph, vs control.

Regarding “Succ-Asp-Ser- D-Trp -N(Me)Val-βAla-Leu-Met-NH2 (Suc-DS[dW][NMeV][βAla]LM-NH2; SMILES CSCC[C@H](NC(=O)[C@H](CC(C)C)NC(=O)CCNC(=O)[C@H](C(C)C)N(C)C(=O)[C@@H](Cc1c[nH]c2ccccc12)NC(=O)[C@H](CO)NC(=O)[C@H](CC(=O)O)NC(=O)CCC(=O)O)C(N)=O) [AN6]”, the “increase in average fish weight” value in the assay on Tilapia fish [1] is listed as “+3.89%”. The FCR-growth relationship result in the assay on Tilapia fish [2] (5, 10 mg and 30 mg AN6/Kg feed in other cases (experiments #2 and #3), with decrease in feed intake) is “improved FCR which did not coincide with improved growth”. In addition, the “FCR in adult fish” value with Tilapia fish [2] (all AN6 peptide treatments, FIGS. 5A, 5B, 10, 11, 12) is on record as “significantly improves FCR”. Moreover, the “duration of improved FCR after treatment stopped” value with Tilapia fish [2] (in vivo) is “at least 100 days”. Also, the “expression of all TK receptors (tac1, tac2, tac3)” value in assay [3] is “altered”. Besides, in the assay on Tilapia fish [4], the “increase in average fish weight” value was “+6.84%” and the “increase in average weight gained” value is recorded as “+13%”. Moreover, the “increase in fish average weight and growth rate” value in the assay with Tilapia fish [5] (10 mg/Kg feed, Group E (fed 60-150 dph), age 95 to 165 dph, vs control) is “~+3%”. In the assay with Tilapia fish [5] (setting [6]), the average weight entry was “+8.4%”, the total biomass result was “+10%” and the weight gain result was “+18%”. Also, in the assay on Tilapia fish [5] (10 mgAN6/Kg feed, Group E (control 2.8%)), the “number of fish in the upper 6.5th decile” value came to 7.2%. In addition, the “number of fish in the lower 2th decile” value with Tilapia fish [5] (10 mgAN6/Kg feed, Group E (control 18.4%)) is 13.2%. The “weight gain of male and female populations analysed separately” value in the assay with Tilapia fish [5] (FIG. 4, 5 and 10 mg/Kg for 90 days (60-150 dph)) is on record as “better performance than control”. Further, in the assay on Tilapia fish [5] (male fish treated with 10 mg AN6/Kg feed, end of experiment #2, vs control, FIG. 6), the “ratio between intestine weight and fish weight (ISI)” value is on record as “+21%”.

These data come from US20220167645A1, “METHODS OF IMPROVING FISH FEED CONVERSION RATE AND SURVIVAL” (AQUINOVO LTD., priority 2019, published 2022).
